Measurements taken from patent publication US7173030B2, “Inhibitors of 11-β-hydroxy steroid dehydrogenase type 1” (Biovitrum AB, priority 2003, dated 2007).
Blank lines part the entries; values can stand above or below the molecule they belong to.

Columns and labels:
[1] = tested on: hepatic insulin sensitivity; conditions: healthy human volunteers; Walker et al. 1995; cited from earlier work
intraocular pressure = conditions: normal subjects; Raus et al 2001; cited from earlier work
Diabetic KKA^y mice = test: Wound healing of surgical wounds in diabetic KKA^y mice; type: in vivo; conditions: oral twice daily 200 mg/kg/day for 3.5 days
Experimental: Diabetic KKA^y mice underwent surgery during anesthesia whereby a catheter was inserted in the jugularis vein. Oral treatment twice daily (200 mg/kg/day) with the 11β-HSD1 inhibitor BVT.2733 (disclosed as Example 172A in WO 01/90090), or vehicle started 4–6 days later and continued for 3.5 days.
Advantageous effects on wound healing of the surgical wounds were observed during treatment.

[2] = target: T1, human 11-β-hydroxysteroid dehydrogenase type-1 enzyme (11-β-HSD1) (Homo sapiens, UniProt P28845); test: Scintillation proximity assay: human 11-β-HSD1 enzyme assay; type: biochemical; conditions: Ki calculated from IC50 (Cheng Prushoff)
T1 construct: made in house; host or cells: Pichia pastoris
From the text: [1,2(n)-^3H]-cortisone was purchased from Amersham Pharmacia Biotech. Anti-cortisol monoclonal mouse antibody, clone 6D6.7 was obtained from Immunotech and Scintillation proximity assay (SPA) beads coated with monoclonal antimouse antibodies were from Amersham Pharmacia Biotech. NADPH, tetrasodium salt was from Calbiochem and glucose-6-phosphate (G-6-P) was supplied by Sigma. The human 11-β-hydroxysteroid dehydrogenase type-1 enzyme (11-β-HSD1) was expressed in Pichia pastoris. 18-β-glycyrrhetinic acid (GA) was obtained from Sigma. The serial dilutions of the compounds were performed on a Tecan Genesis RSP 150. […]
The multiplication of plates was done on a WallacQuadra. The amount of the product [^3H]-cortisol, bound to the beads was determined in a Packard, Top Count microplate liquid scintillation counter. […]
The plates were covered with plastic film and incubated on a shaker for 30 minutes, at room temperature, before counting. The amount of [^3H]-cortisol, bound to the beads was determined in a microplate liquid scintillation counter.
The calculation of the Ki values for the inhibitors was performed by use of Activity Base. The Ki value is calculated from IC50 and the Km value is calculated using the Cheng Prushoff equation (with reversible inhibition that follows the Michaelis-Menten equation): […] [Cheng, Y. C.; Prushoff, W. H. Biochem. Pharmacol. 1973, 22, 3099–3108]. […]

T1 sequence (P28845 whole entry): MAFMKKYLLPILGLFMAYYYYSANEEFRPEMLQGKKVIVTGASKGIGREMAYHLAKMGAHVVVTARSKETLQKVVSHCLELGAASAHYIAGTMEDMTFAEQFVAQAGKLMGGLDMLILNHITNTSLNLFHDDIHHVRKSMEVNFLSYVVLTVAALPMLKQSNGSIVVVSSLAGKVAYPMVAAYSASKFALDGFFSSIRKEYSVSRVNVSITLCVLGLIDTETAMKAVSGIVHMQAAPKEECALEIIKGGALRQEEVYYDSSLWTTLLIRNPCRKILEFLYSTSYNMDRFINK

Molecule: CC1(C)[C@@H](OC(=O)CCC(=O)O)CC[C@]2(C)[C@H]3C(=O)C=C4[C@@H]5C[C@@](C)(C(=O)O)CC[C@]5(C)CC[C@@]4(C)[C@]3(C)CC[C@@H]12 [carbenoxolone]
hepatic insulin sensitivity [1]: improved
reduction of intraocular pressure (intraocular pressure): 20%

Molecule: BVT.2733
animals showing complications during treatment period (Diabetic KKA^y mice; jugular catheter surgery, vehicle 58%): 24%
effects on wound healing of the surgical wounds (Diabetic KKA^y mice; compared to control mice): less pus in the wound, as well as better wound strength

Ki [2]: 219 nM
Molecule: CC(C)c1nnc(NS(=O)(=O)c2ccc(Oc3ccccc3)cc2)s1 [Example 244, N-(5-isopropyl-1,3,4-thiadiazol-2-yl)-4-phenoxybenzenesulfonamide]

Ki [2]: 321 nM
Molecule: Cc1ccc([N+](=O)[O-])cc1S(=O)(=O)Nc1nc(C(C)C)ns1 [Example 80, N-(3-isopropyl-1,2,4-thiadiazol-5-yl)-2-methyl-5-nitrobenzenesulfonamide]
